Entries after “also recorded” stand apart in the source; their conditions may differ. Non-standard residues stand in square brackets, D forms with d. pGlu = O=C1CC[C@@H](C(=O)O)N1
Experiments:
testosterone = test: Testosterone levels in serum (Coat-a-Count kit); type: in vivo, pig; settings: for testosterone (pmol/ml) at 13 wpv median (range): Table 3, serum, n.d. = not detectable; for testosterone level (in words): after immunization
Experimental: Blood samples were taken via puncture of the vena jugularis on the same days testis sizes were measured, and also 4 weeks after the initial immunization. Blood samples were kept overnight at 4° C. and the next day serum was obtained by centrifugation (1500 g, 15 min). Serum samples were stored at −20° C. until assayed.
Testosterone levels in serum were determined using a Coat-a-Count kit purchased from DPC laboratories, Los Angeles, Calif.

GnRH-II = test: GnRH antibody binding competitive radioimmunoassay, competition by GnRH-II; parameters: species or system pig; settings: for sera with reduced binding to iodinated GnRH after competition by GnRH-II / binding of antibodies to GnRH-II: 10 wpv sera; for sera with reduced binding to iodinated GnRH after competition by GnRH-II / animals whose 10 wpv sera did not bind to GnRH-II: 1/10000 dilution; for sera with reduced binding to iodinated GnRH after competition by GnRH-II: share of sera per treatment; for binding of antibodies to GnRH-II: substantially all animals of the group; for animals whose 10 wpv sera did not bind to GnRH-II: 25 pmol peptide per well
Experimental: To determine whether antibodies raised by the GnRH vaccines according to the present invention discriminated between GnRH-I and GnRH-II, a GnRH antibody binding assay was performed in order to determine whether antibodies rose against GnRH-I-tandem dimer peptide or its alanine replacement analogs bind to GnRH-II or lack binding to GnRH-II. Serum dilutions were preincubated with either GnRH-I, GnRH-II, a control peptide, or no peptide. Next, iodinated GnRH-I was added to compete with the preincubated peptides for binding to the antibodies.
A GnRH antibody binding competitive radioimmunoassay was performed in order to determine whether antibodies raised against G6k-GnRH-tandem (SEQ ID NO: 9) dimer peptide or its alanine replacement analogs bind to GnRH-II or lack binding to GnRH-II. Serum dilutions were preincubated with either GnRH-I, GnRH-II, a control peptide or no peptide. Next, iodinated GnRH-I was added to compete with the preincubated peptides for binding to the antibodies.
This procedure was performed for serum collected before and after booster immunization, as specificity of the antibodies may increase after booster immunization due to antibody maturation.
(§1) Serum samples of the 10 wpv bleeding (3 weeks post booster immunization) were diluted 1/10000 in PBS with 0.4% BSA (dilution buffer). Fifty μl serum dilution was put in microwell plates and 25 μl peptide solution (0, 0.25, 2.5 or 25 pmol peptide in dilution buffer per well) was added. This mixture was allowed to incubate for 24 hours at 4° C. The next day, 25 μl iodinated GnRH (approximately 13000 cpm) was added and after overnight storage (4° C.) unbound peptide was separated from bound peptide with charcoal. After centrifugation, supernatant was separated, counted and the percentage of iodinated GnRH bound to the antibodies was calculated.
Antibodies collected after the first immunization (7 wpv) were tested in a 1/2000 serum dilution and only one peptide dilution was tested (25 pmol/well).

[1] = test system: peptides used for immunization; test: Peptide antibodies ELISA of antisera; type: in vivo, pig; settings: for anti peptide titer at 10 wpv: Table 3, mean titer against the peptide used for immunization
Experimental: Antibodies to the peptides used for immunization were determined with an ELISA. Peptides were coated in the wells of a microtitreplate using glutardialdehyde (GDA). GDA was coated to the surface of the wells by incubation with 0.2% GDA in 0.1 M phosphate buffer (pH 5) for 4 hours at room temperature. Plates were rinsed 3 times for 10 minutes with 0.1 M phosphate buffer (pH 8). One microgram peptide in […] phosphate buffer (0.1 M, pH 8) was coated per well by incubating for 3 hours at 37° C. Plates were stored at −20° C. until used. Thawed plates were rinsed 3 times for 10 minutes with milli Q water containing 8.2 g NaCl, 1.15 g Na2HPO4.2H2O, 0.20 g NaH2PO4.2H2O and 5 ml of a 10% Tween 80 solution in water per liter water.
Serial serum dilutions of the antipeptide sera were allowed to react with the coated peptides for 1 hour at 25° C. After rinsing 3 times for 10 minutes, goat-anti-pig IgG coupled to horseradish peroxidase (Dako, Glastrup, Denmark) was introduced as second antibody for 1 hour and ABTS (Boehringer, Mannheim, Germany) (([…] (2 g/100 ml) in 10 ml substrate buffer to which […] H2O2 (3% solution)) was used as substrate. Absorption was measured at 405 nm.

Male piglets = test: Immunocastration of pigs: testis size and testis weight after immunization; type: in vivo, pig; settings: for testis weight (g) (median (range)) / number responders/total number: Table 2; for testis weight (g) (median (range)): after slaughter at 13 wpv; for number responders/total number: effectiveness according to testis weight; for testis weight (median range): Table 3; for animals that did not respond to the immunization: number of animals per group of 7
Experimental: Male piglets, approximately 10 weeks of age, were involved in this experiment. The crossbred piglets were housed in half-slatted pens and were given ad libitum access to feed and water.
The piglets were randomly assigned to the treatments, 6 or 7 piglets per treatment. All animals were injected with 2 ml emulsion containing the dimerized tandem GnRH conjugates (i.e., […] peptide) or an emulsion without antigen. Injections were administered intramuscularly in the neck at the start of the experiment (day 0) and 7 weeks later (7 wpv). Thirteen weeks after initial immunization (13 wpv) all animals were slaughtered.
Animals were weighed at day 0 and 7 and 13 wpv. Testis sizes were determined by measuring testis length with Vernier calipers at day 0, and 7, 10 and 13 weeks thereafter. Testis sizes were recorded as average of both testicles.
After slaughter testes were removed, dissected free of epididymes and weighed. Testes weights were recorded as average of both testicles.

^125I-GnRH = test: GnRH antibodies: binding of pig antisera to 125I-GnRH; type: in vivo; settings: for GnRH binding (average): Table 3, GnRH antibody binding percentage of 125I-GnRH, average per treatment
Experimental: Antibodies to GnRH were determined as described by Meloen et al. (Vaccine 12, 741-746 (1994)). Serial dilutions of the pig antisera were allowed to bind to ^125I-GnRH. Titers are expressed as percentage binding of ^125I-GnRH at a given serum dilution.
as §1

[2] = 7 wpv (before booster), 1/2000 dilution, 25 pmol/well

| Substance | testosterone (pmol/ml) at 13 wpv median (range) (testosterone) | testosterone level (in words) (testosterone) | sera with reduced binding to iodinated GnRH after competition by GnRH-II (GnRH-II) | anti peptide titer at 10 wpv [1] | testes weight (in words) (Male piglets) | testis weight (g) (median (range)) (Male piglets) | number responders/total number (Male piglets) | testis weight (median range) (Male piglets) | GnRH binding (average) (^125I-GnRH) | animals that did not respond to the immunization (Male piglets) | antibody titers against the peptides used for immunization (in words) [1] | animals whose prebooster sera showed binding to GnRH-II (GnRH-II; [2]) | binding of antibodies to GnRH-II (GnRH-II) | animals whose 10 wpv sera did not bind to GnRH-II (GnRH-II) | prebooster sera that did not recognize GnRH-II (GnRH-II; [2]) | prebooster sera with no binding to iodinated GnRH (^125I-GnRH; 7 wpv (before booster), 1/2000 dilution) |
| --- | --- | --- | --- | --- | --- | --- | --- | --- | --- | --- | --- | --- | --- | --- | --- | --- |
| G10A-G6k-GnRH-tandem ([pGlu]HWSY[dK]LRPAQHWSY[dK]LRPAC-NH2; also: dimerized through Cys 21) | n.d. (n.d.) | undetectable testosterone levels; also recorded: low testosterone level | all sera | 3.19 | low testes weight | 14 (11-39) g | 7/7 | 14 (11-39) | 17.6% |  |  |  |  |  |  |  |
| L7A-G6k-GnRH-tandem ([pGlu]HWSY[dK]ARPGQHWSY[dK]ARPGC-NH2; also: dimer via Cys21) |  |  | half of the sera | 3.52 |  | 20 (12-195) g | 6/7 | 20 (12-195) | 17.6% | 1 |  |  |  |  |  |  |
| P9A-G6k-GnRH-tandem-dimer conjugate ([pGlu]HWSY[dK]LRAGQHWSY[dK]LRAGC-NH2; also: dimerized through Cys 21, ovalbumin conjugate) |  |  | most of the sera | 2.62 |  | 23 (8-300) g | 6/7 | 23 (8-300) | 15.8% | 1 | lower than peptide antibody titers of other treatments |  |  |  |  |  |
| R8A-G6k-GnRH-tandem ([pGlu]HWSY[dK]LAPGQHWSY[dK]LAPGC-NH2; also: dimer via Cys21) | n.d. (n.d.) | undetectable testosterone levels; also recorded: low testosterone level | all sera | 3.34 | low testes weight | 15 (10-19) g | 7/7 | 15 (10-19) | 17.7% |  |  |  |  |  |  |  |
| S4A-G6k-GnRH-tandem ([pGlu]HWAY[dK]LRPGQHWAY[dK]LRPGC-NH2; also: dimer via Cys21) | n.d. (n.d.) | undetectable testosterone levels; also recorded: low testosterone level |  | 3.19 | effective in terms of low testes weights; also recorded: low testes weight | 36 (10-69) g | 7/7 | 36 (10-69) | 16.9% |  |  | all animals | completely lacked binding to GnRH-II | 6 out of 7 |  |  |
| Y5A-G6k-GnRH-tandem ([pGlu]HWSA[dK]LRPGQHWSA[dK]LRPGC-NH2; also: dimer via Cys21) |  |  | half of the sera | 2.92 |  | 44 (15-235) g | 5/7 | 44 (15-235) | 11.3% | 2 |  |  |  |  |  |  |
| pE1A-G6k-GnRH-tandem-dimer OVA conjugate (Ac-AHWSY[dK]LRPGAHWSY[dK]LRPGC-NH2; also: dimerized through Cys 21, ovalbumin conjugate) |  |  |  | 3.24 | effective in terms of low testes weights | 36 (16-65) g | 7/7 | 36 (16-65) | 15.7% |  |  | 4 out of 7 | completely lacked binding to GnRH-II | 6 out of 7 | Two | one |
